Results from US20230106523A1, “QUERCETIN ENHANCEMENT FORMULATION” (SMARTDNA PTY LTD, priority 2020, published 2023).
Several values for one entry are separate records, joined by “and”; a condition that tells them apart may be missing. Equal values may be shown once.

Experiments:
[1] = Rat study: serum quercetin concentration after oral gavage; assay type: in vivo, Sprague-Dawley rats; conditions: for concentration of quercetin in the serum from individual rats: one column per rat
Description: Rats were administered: • (a) Quercetin • (b) American Ruby Red grapefruit extract • (c) Quercetin and American Ruby Red grapefruit extract • (d) grapefruit extract • (e) grapefruit extract and quercetin
5 groups of 8 male Sprague-Dawley rats, aged approximately 14 weeks, weighing 350-400 gm were used in the study. The rats were bred at Hercus-Taeri Resource Unity. All of the rats were healthy and had no medication history.
1. The quercetin was dissolved in distilled water at 12.0 mg/ml immediately prior to administration.
2. American Ruby Red grapefruit was cut in half and juice obtained by manual squeezing.
The grapefruit extract used was a commercially obtained grapefruit juice.
3. A known volume of each of the grapefruit juices was lyophilized. Once dry, the residue was resuspended in distilled water to 25% of its original volume. This reduced the volume to be gavaged to each rat in the relevant groups to make the quantities of active agents administered as high as practical.
4. The quercetin/grapefruit juice formulations were prepared by dissolving the quercetin in the concentrated juices at 12.0 mg/ml.
GROUP 1. Each animal in this group received quercetin at 15 mg per kg body weight administered by oral gavage.
GROUP 2. Each animal in this group received the concentrated New Zealand grapefruit juice (American Ruby Red) at 2.5 ml per kg body weight administered by oral gavage.
GROUP 3. Each animal in this group received quercetin dissolved in the concentrated New
Zealand grapefruit juice (American Ruby Red) administered by oral gavage. The juice was administered so as to provide 15 mg quercetin per kg body weight.
GROUP 4. Each animal in this group received the concentrated grapefruit juice (prepared by Cedenco Ltd) at 2.5 ml per kg body weight administered by oral gavage.
GROUP 5. Each animal in this group received quercetin dissolved in the concentrated grapefruit juice (prepared by Cedenco Ltd) at 2.5 ml per kg body weight administered by oral gavage. The quercetin was dissolved so that it was administered at 15 mg per kg body weight.
1. A 0.5 ml time zero blood sample was taken from each animal from the lateral saphenous vein. The animals were anaesthetized using Halothane in oxygen (3.5% for knockdown, 2.5 to 3.0% for maintenance). The vein was cannulated. The zero-time blood sample was taken from each group of rats the day before the animals were gavaged. Following the collection of the blood sample, a 0.5 ml aliquot of sterile normal saline was given by intraperitoneal (IP) injection.
2. The test sample was prepared freshly immediately prior to the gavaging of each group of rats. Each animal was weighed and the volume of the test sample to be administered calculated.
3. Each rat was gavaged using proprietary gavaging needles (Popper). Once gavaging was complete the animals were left for 10 minutes before being anaesthetized using Halothane in oxygen (3.5% for knockdown, 2.5 to 3.0% for maintenance).
4. […] After each collection an equal volume of sterile saline was administered to each animal via an IP injection. The blood samples were immediately transferred to serum separating microtainer tubes (Becton Dickinson Cat. No 365956) and left to clot for 30 minutes at room temperature. The tubes were centrifuged at 3000 rpm for 10 minutes in a Beckman J6 centrifuge with a swing-out rotor. The sera were pipetted off and transferred into Eppendorf tubes/cryovials which were stored at −80° C.
The sera samples were sent to the Institute of Environmental Science and Research (ESR) (Kenepuru, Wellington, New Zealand) for quantitation of the concentration of quercetin in each. The detection limit for quercetin in serum was 5 ng/ml.

[2] = Human trial: blood serum levels of quercetin after ingestion, HPLC-UV; assay type: in vivo; conditions: human subject, 80 mg quercetin oral
Description: The concentration of quercetin in the blood of a human subject was measured over four hours following ingestion of: • (a) 80 mg quercetin and 200 ml filtered water, • (b) 80 mg quercetin and 200 ml grapefruit extract.
The grapefruit extract consisted of grapefruit juice that was squeezed from the grapefruit with a juicer. The collected juice was freeze-dried and redissolved as a concentrate (4 times) using water for solubilising.
The total amount of 6,7-DHB administered in the grapefruit extract in (b) above was estimated to be about 5.9 mg.
In both experiments, the quercetin was administered as a powder washed down with filtered water.
For the quercetin and grapefruit extract test, the grapefruit extract was taken two hours before the quercetin.
Serum samples were taken from the subject at 15 minute intervals. The samples were extracted into ethyl acetate and the concentration of quercetin determined using HPLC with UV detection at 315 nm. Carbamazepine was used as an internal standard.
A linear relationship for the standard curve was achieved over the range of quercetin standards of 2-150 ng/mL (using weighted linear retgression 1/x^2).
The lower limit of quantification (LLOQ) for the method was determined to be 2 ng/mL (using FDA guidelines for bio-analytical procedures) and the limit of detection was estimated to be 1 ng/mL.

[3] = cited from earlier work
[4] = cited from earlier work; remark: listed apart in the source

O=c1c(O)c(-c2ccc(O)c(O)c2)oc2cc(O)cc(O)c12 [Quercetin, 2-(3,4-dihydroxyphenyl)-3,5,7-trihydroxy-4H-chromen-4-one]
concentration of quercetin in the serum from individual rats ([1]; 0 min (sample taken the day before gavage)): 0 | concentration of quercetin in the serum from individual rats ([1]; 30 min after oral gavage, quercetin 15 mg/kg and/or concentrated juice 2.5 ml/kg): 0 | rats (of eight) showing quercetin in the serum ([1]; 30 minutes after administration): none was detected in any of the animals | concentration of quercetin in the serum from individual rats ([1]; 60 min after oral gavage, quercetin 15 mg/kg and/or concentrated juice 2.5 ml/kg, listed as Quercetin alone): 0 (7×) and 2 | concentration of quercetin in the serum from individual rats ([1]; 90 min after oral gavage, quercetin 15 mg/kg and/or concentrated juice 2.5 ml/kg, listed as Quercetin alone): 0 (7×) and 2 | concentration of quercetin in the serum from individual rats ([1]; 120 min after oral gavage, quercetin 15 mg/kg and/or concentrated juice 2.5 ml/kg, listed as Quercetin alone): 0 (7×) and 2 | concentration at 0 min ([2]; time 0 min): 0 ng/mL | concentration at 15 min ([2]; time 15 min): 1 ng/mL | concentration at 30 min ([2]; time 30 min): 2.3 ng/mL | concentration at 45 min ([2]; time 45 min): 3.8 ng/mL | concentration at 60 min ([2]; time 60 min): 3.1 ng/mL | concentration at 75 min ([2]; time 75 min): 1 ng/mL | concentration at 90 min ([2]; time 90 min): 0 ng/mL | concentration at 105 min ([2]; time 105 min): 0 ng/mL | concentration at 120 min ([2]; time 120 min): 0 ng/mL | concentration at 135 min ([2]; time 135 min): 0 ng/mL | concentration at 150 min ([2]; time 150 min): 0 ng/mL | concentration at 165 min ([2]; time 165 min): 0 ng/mL | concentration at 180 min ([2]; time 180 min): 0 ng/mL | concentration at 195 min ([2]; time 195 min): 0 ng/mL | concentration at 210 min ([2]; time 210 min): 0 ng/mL | concentration at 225 min ([2]; time 225 min): 0 ng/mL | concentration at 240 min ([2]; time 240 min): 0 ng/mL | water solubility [3]: low | bioavailability of active quercetin (duration) ([4]; human studies (Graefe 1999)): no more than 10 minutes | elimination half-life ([4]; humans, after ingesting quercetin foods or supplements): 1 to 2 h | bioavailability of quercetin in humans ([4]; humans): 0-50%
